The structures appear in SMILES notation. Where two headings read alike, the source gives them in different places.

For this assay, the system named is depressant effects of tetrabenazine (TBZ). Kind of assay: tetrabenazine (TBZ) antagonism assay in mice: exploratory activity (EA) and reversal of ptosis (Pt). It is filed as in vivo. To be noted: for ED50: Mus musculus, ip; for percent inhibition at a certain dose, EA (exploratory activity): TBZ 32 mg/kg i.p. On the procedure: The utility of the novel compounds of this patent is based on a standard test for antidepressant agents involving antagonism of the depressant effects of tetrabenazine (TBZ). This is the "classical" tetrabenazine antagonism assay described in U.S. Pat. No. 3,787,577. In this test, mice are injected with a test compound 30 minutes prior to the injection of 32 mg/kg i.p. of TBZ, a drug which decreases normal exploratory activity and induces ptosis. After 30 minutes, the mice are tested for two parameters: the presence of normal exploratory activity (EA) and reversal of ptosis (Pt). A control group of mice is given only 32 mg/kg i.p. of TBZ. The biological activity of the novel compounds of this invention may be understood by some representative, nonlimiting examples, presented in Tables I and II.
Tables I lists the compounds tested by a compound number, structural formula, HX or acid addition salt form in which the compound was tested, test data, and internal code number (McN No.). Table II names the various Table I compounds.
*ED50 given in mg/kg for each parameter (except for percent
inhibition at a certain dose in mg/kg, given for four examples: XLIV, XLV

[1] abbreviates: mice, i.p., compound 30 minutes prior to 32 mg/kg i.p. TBZ, normal exploratory activity, read-out: TBZ ED50, EA (exploratory activity).
The mark [2] stands for this setting: mice, i.p., compound 30 minutes prior to 32 mg/kg i.p. TBZ, reversal of ptosis, read-out: TBZ ED50, Pt (reversal of ptosis).
[3] abbreviates: read-out: TBZ ED50, EA (exploratory activity).
[4] abbreviates: read-out: TBZ ED50, Pt (reversal of ptosis).

For the molecule `COc1cccc([C@@H]2CN3CCC[C@@H]3c3ccccc32)c1` (relative stereo) [Compound XL, 1,2,3,5,6,10bβ-Hexahydro-6α-(3-methoxyphenyl)pyrrolo[2,1-a]isoquinoline], the 50% effective dose (ED50) by setting is: under setting [1], approximately 0.17 mg/kg; under setting [2], approximately 0.07 mg/kg.

As for `C[C@@]1(c2ccccc2)CN2CCC[C@@H]2c2ccccc21` (relative stereo) [XXV, 1,2,3,5,6,10bβ-Hexahydro-6-methyl-6α-phenylpyrrolo[2,1-a]isoquinoline], the median effective dose (ED50) by setting is: under setting [1], 27 mg/kg; under setting [2], 0.7 mg/kg.

Turning to `Clc1ccccc1[C@@H]1CN2CCC[C@@H]2c2ccccc21` (relative stereo) [LI, [6α,10bβ]-6-(2-chlorophenyl)-1,2,3,5,6,10b-hexahydropyrrolo[2,1-a]isoquinoline], the ED50 under setting [2] is 0.2 mg/kg. Also, the “percent inhibition at a certain dose, EA (exploratory activity)” value (mice, i.p., @ 60 mg/kg) turned out to be 37%.

Turning to `c1ccc([C@H]2Cc3ccccc3[C@@H]3CCCN23)cc1` (relative stereo) [LII, 1,2,3,5,6,10bα-Hexahydro-5α-phenylpyrrolo[2,1-a]isoquinoline], the ED50 runs as follows: under setting [3], approximately 30 mg/kg; under setting [4], 32 mg/kg.

Take `Oc1ccc(C2CN3CCCC3c3ccccc32)cc1` (stereo not drawn) [XXXVI, 4-(1,2,3,5,6,10bα-Hexahydropyrrolo[2,1-a]isoquinolin-6α-yl)phenol]: the “TBZ ED50, EA (exploratory activity)” value (mice, i.p., compound 30 minutes prior to 32 mg/kg i.p. TBZ, normal exploratory activity) is given as “ca. 14 mg/kg”. In addition, the “TBZ ED50, Pt (reversal of ptosis)” value (mice, i.p., compound 30 minutes prior to 32 mg/kg i.p. TBZ, reversal of ptosis) was found to be 10 mg/kg.

For the molecule `Clc1ccc([C@@H]2CN3CCC[C@H]3c3ccccc32)cc1Cl` (relative stereo) [XXIV, 6α-(3,4-Dichlorophenyl)-1,2,3,5,6,10bα-hexahydropyrrolo[2,1-a]isoquinoline], the median effective dose (ED50) runs as follows: under setting [3], approximately 40 mg/kg; under setting [4], 8 mg/kg.

For the molecule `COc1ccc([C@@H]2CN3CCC[C@@H]3c3ccccc32)cc1OC` (relative stereo) [XLV, 1,2,3,5,6,10bβ-Hexahydro-6α-(3,4-dimethoxyphenyl)pyrrolo[2,1-a]isoquinoline], the ED50 under setting [2] was found to be 0.14 mg/kg. Also, the “percent inhibition at a certain dose, EA (exploratory activity)” value (mice, i.p., @ 30 mg/kg) worked out at 33%.

Usually ED50 stands for the midpoint of the dose-response relation.

The values are drawn from US4595688A, “Hexahydropyrrolo[2,1-a]isoquinoline derivatives and antidepressant use thereof” (priority 1984, dated 1986).
